Experimental data reported in PubChem BioAssay (NCI).
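Following 48 hours of exposure in 96-well plates, responses at five concentrations were used to interpolate endpoints linearly. TGI: concentration producing complete growth inhibition.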

Tests used:
Assay in all cases: NCI-60 cell line screen, 48 h
NCI-H522 lung = system: NCI-H522 lung
SF-268 CNS = system: SF-268 CNS
KM20L2 colon = system: KM20L2 colon
SR leukemia = system: SR leukemia
SK-MEL-28 melanoma = system: SK-MEL-28 melanoma
HL-60(TB) leukemia = system: HL-60(TB) leukemia
OVCAR-4 ovarian = system: OVCAR-4 ovarian
A549 NSCLC = system: A549 NSCLC
SNB-78 CNS = system: SNB-78 CNS
DMS 273 small cell lung = system: DMS 273 small cell lung

CN(C)c1ccc(C(=C(c2ccc(N(C)C)cc2)c2ccc(N(C)C)cc2)c2ccc(N(C)C)cc2)cc1
TGI (NCI-H522 lung): 1.12 µM | TGI (SF-268 CNS): 56.4 µM | TGI (KM20L2 colon): 42.4 µM | TGI (SR leukemia): 30.8 µM | TGI (SK-MEL-28 melanoma): 29.4 µM | TGI (HL-60(TB) leukemia): 26.5 µM | TGI (OVCAR-4 ovarian): > 100 µM | TGI (A549 NSCLC): 31.4 µM | TGI (SNB-78 CNS): > 100 µM | TGI (DMS 273 small cell lung): 38.9 µM
